Read-outs that look alike come from different tables or passages of the source.
Key:
plasmin = target: T1, plasmin (Homo sapiens, UniProt P00747); test: Plasmin enzymatic assay (selectivity screening); type: biochemical; conditions: for Plasmin Inhibition (%): % Inhibition at 5 μM
T1 construct: uPA, Factor Xa, thrombin, plasmin and trypsin (Sigma, USA); purchased Sigma, USA
Text: (§1) Purified recombinant matriptase was used in a fluorescence-based screening assay using Gln-Ala-Arg peptide as a substrate. In this assay the cleavage of AMC from Boc-Gln-Ala-Arg-7-amido-4 methylcoumarin hydrochloride (Boc-Gln-Ala-Arg-AMC) (Sigma, USA) was monitored by measuring the increase in fluorescence intensity of AMC released upon proteolytic cleavage at 480 nm (kex=360 nm). Similarly, enzymatic assays in fluorimetric or colorimetric format for uPA, Factor Xa, thrombin, plasmin and trypsin (Sigma, USA) were established using substrates pyroGlu-Gly-Arg-pNA.HCl, Boc-Gln-Ala-Arg-AMC, CH3OCO-D-CHA-Gly-Arg-PNA.AcoH, Pyro Glu-Phe-Lys—pNA.HCl and Boc-Gln-Ala-Arg-AMC, respectively.

[1] = target: T2, Purified recombinant matriptase (Homo sapiens, UniProt Q9Y5Y6); test: Matriptase fluorescence-based enzymatic assay (Boc-Gln-Ala-Arg-AMC cleavage); type: biochemical
T2 sequence (Q9Y5Y6 1-855): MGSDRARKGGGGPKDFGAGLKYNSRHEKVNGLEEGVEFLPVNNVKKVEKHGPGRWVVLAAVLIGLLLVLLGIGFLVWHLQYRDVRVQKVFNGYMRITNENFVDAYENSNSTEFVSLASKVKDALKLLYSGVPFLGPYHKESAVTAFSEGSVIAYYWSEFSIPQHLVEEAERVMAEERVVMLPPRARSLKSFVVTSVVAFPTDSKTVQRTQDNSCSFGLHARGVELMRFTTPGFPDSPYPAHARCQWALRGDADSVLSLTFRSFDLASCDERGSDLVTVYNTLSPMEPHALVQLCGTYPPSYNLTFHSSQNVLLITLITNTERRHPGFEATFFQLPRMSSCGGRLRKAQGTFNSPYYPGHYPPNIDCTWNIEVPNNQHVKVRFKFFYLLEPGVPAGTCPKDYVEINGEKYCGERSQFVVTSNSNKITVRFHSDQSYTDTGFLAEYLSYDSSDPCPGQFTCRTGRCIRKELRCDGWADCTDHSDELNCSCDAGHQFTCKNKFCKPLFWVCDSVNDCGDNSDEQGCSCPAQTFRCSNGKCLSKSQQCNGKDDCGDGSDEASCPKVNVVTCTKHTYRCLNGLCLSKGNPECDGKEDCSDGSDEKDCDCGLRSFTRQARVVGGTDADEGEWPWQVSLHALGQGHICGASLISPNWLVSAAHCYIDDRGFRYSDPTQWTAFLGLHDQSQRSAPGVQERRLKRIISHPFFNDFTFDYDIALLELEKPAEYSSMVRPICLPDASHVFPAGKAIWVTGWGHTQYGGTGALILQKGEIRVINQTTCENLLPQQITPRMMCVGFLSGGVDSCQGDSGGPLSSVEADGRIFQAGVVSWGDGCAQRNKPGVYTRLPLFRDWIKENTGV
Text: as §1

uPA = target: T3, uPA (Homo sapiens, UniProt P00749); test: uPA enzymatic assay (selectivity screening); type: biochemical; conditions: for uPA Inhibition (%): % Inhibition at 5 μM
T3 construct: purchased Sigma, USA
Text: as §1

thrombin = target: T4, thrombin (Homo sapiens, UniProt P00734); test: Thrombin enzymatic assay (selectivity screening); type: biochemical; conditions: for Thrombin Inhibition (%): % Inhibition at 5 μM
T4 construct: uPA, Factor Xa, thrombin, plasmin and trypsin (Sigma, USA); purchased Sigma, USA
Text: as §1

trypsin = test: Trypsin enzymatic assay (selectivity screening); type: biochemical; conditions: % Inhibition at 5 μM
Text: as §1

Factor Xa = target: T5, Factor Xa (Homo sapiens, UniProt P00742); test: Factor Xa enzymatic assay (selectivity screening); type: biochemical; conditions: for Factor Xa Inhibition (%): % Inhibition at 5 μM
T5 construct: uPA, Factor Xa, thrombin, plasmin and trypsin (Sigma, USA); purchased Sigma, USA
Text: as §1

DU145 cells [2] = test: Migration assay in transwell chambers; type: cell-based; conditions: for inhibition at 10 µM: Homo sapiens, DU-145, 24 hours
Protocol: Migration assays were performed to determine the effect of matriptase inhibitors on cell motility. Cells were seeded with 10 μM test compound into transwell chambers and allowed to migrate for 24 hours using a combination of 10% FBS and 5 μg/ml fibronectin as chemoattractant.

DU145 cells [3] = test: Cell invasion assay (matrigel transwell); type: cell-based; conditions: for inhibition at 10 µM: Homo sapiens, DU-145, 48 hours
Protocol: Cell invasion assays were done for quantitating the degree to which invasive cells penetrate a barrier essentially as in migration assay but with the use of matrigel consisting of basement membrane components in the transwell inserts and incubating for 48 hours. The barrier used was matrigel. This was followed by fixing and staining of the transwell insert with 0.5% crystal violet in 25% methanol in order to visualize cells migrated.

DU145 cells [4] = test: Cytotoxicity, Calcein AM assay, DU145; type: cell-based; conditions: four days of incubation; for viability at 10 µM: Homo sapiens, DU-145, 96 h, read-out: Cell survival at 10 μM (%)
Protocol: Cytotoxicity of the compounds was tested in cell lines or primary cells using Calcein AM assay. This assay measures cell viability by quantitation of cleaved fluorescent product of a cell permeable substrate that is retained in the cytoplasm of cells with uncompromised cytoplasmic membrane integrity. The cells were seeded into 96-well plate and allowed to adhere for a day followed by addition of compound at several different concentrations. After four days of incubation with the compound, media was removed from the cells followed by addition of PBS and addition of Calcein AM reagent at 1 μM final concentration. The cells were then allowed to incubate at 37° C. for half an hour followed by reading on the fluorimeter. Percent viability was calculated based on fluorescence value obtained at 485/520 nm with cut off at 495 nm.

[5] = Table 1, read-out: Matriptase Inhibition IC50
[6] = Table 2, read-out: Matriptase IC50

T5 sequence (P00742 235-488 limits assumed): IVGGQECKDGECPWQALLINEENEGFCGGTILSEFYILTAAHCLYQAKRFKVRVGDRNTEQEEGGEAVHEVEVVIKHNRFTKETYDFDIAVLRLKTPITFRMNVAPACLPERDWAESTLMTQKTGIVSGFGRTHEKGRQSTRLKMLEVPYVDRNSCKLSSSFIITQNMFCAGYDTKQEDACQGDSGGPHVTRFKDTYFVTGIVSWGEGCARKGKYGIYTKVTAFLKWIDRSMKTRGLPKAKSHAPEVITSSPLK
T5 sequence (P00742 41-179 partner limits assumed): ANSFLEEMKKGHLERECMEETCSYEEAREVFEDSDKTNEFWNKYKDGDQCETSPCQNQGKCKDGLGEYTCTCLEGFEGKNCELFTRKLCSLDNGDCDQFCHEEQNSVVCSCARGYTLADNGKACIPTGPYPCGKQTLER
T1 sequence (P00747 581-810 limits assumed, species assumed): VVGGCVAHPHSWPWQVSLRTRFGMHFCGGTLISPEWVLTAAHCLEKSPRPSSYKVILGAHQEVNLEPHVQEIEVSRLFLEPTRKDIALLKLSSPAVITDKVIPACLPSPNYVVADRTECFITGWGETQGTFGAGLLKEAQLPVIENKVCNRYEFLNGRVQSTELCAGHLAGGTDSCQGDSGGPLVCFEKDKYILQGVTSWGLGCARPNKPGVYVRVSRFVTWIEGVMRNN
T1 sequence (P00747 97-580 partner limits assumed, species assumed): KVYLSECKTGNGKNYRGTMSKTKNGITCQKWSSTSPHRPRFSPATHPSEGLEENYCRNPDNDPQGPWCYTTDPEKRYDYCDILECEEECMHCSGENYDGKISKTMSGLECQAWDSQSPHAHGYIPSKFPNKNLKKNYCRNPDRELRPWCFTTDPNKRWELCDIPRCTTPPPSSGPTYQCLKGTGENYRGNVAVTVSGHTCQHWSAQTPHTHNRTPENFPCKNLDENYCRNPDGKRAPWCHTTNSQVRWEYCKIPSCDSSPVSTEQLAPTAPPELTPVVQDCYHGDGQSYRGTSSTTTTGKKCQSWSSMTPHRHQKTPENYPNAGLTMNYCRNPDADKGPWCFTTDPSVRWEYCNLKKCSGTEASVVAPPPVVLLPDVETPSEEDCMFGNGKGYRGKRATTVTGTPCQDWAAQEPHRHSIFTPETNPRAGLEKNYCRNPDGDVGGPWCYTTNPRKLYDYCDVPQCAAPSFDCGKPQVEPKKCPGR

Compound	inhibition at 5 µM (plasmin)	IC50 [1, 5]	inhibition at 5 µM (uPA)	inhibition at 5 µM (thrombin)	inhibition at 5 µM (Factor Xa)	Plasmin Inhibition (%) (plasmin)	uPA Inhibition (%) (uPA)	Thrombin Inhibition (%) (thrombin)	Factor Xa Inhibition (%) (Factor Xa)	IC50 [1, 6]	Trypsin Inhibition (%) (trypsin)	inhibition at 10 µM (DU145 cells [2])	inhibition at 10 µM (DU145 cells [3])	viability at 10 µM (DU145 cells [4])	Inhibition of migration at 10 μM (%) (DU145 cells [2]; 24 hours)	Inhibition of invasion at 10 μM (%) (DU145 cells [3]; 48 hours)	Cell survival at 10 μM (%) (DU145 cells [4])
N=C(N)c1ccc(Oc2cc(OCc3cccc(C(=N)N)c3)cc(C(=O)N3CCC(CCN)CC3)c2)cc1 [Example 57, 2-{1-[3-(3-Carbamimidoyl-benzyloxy)-5-(4-carbamimidoyl-phenoxy)-benzoyl]-piperidin-4-yl}-ethylamine]	50%	29 nM	10%	57%	94%	–	–	–	–	–	74%	–	–	–	–	–	–
N=C(N)c1ccc(Oc2cc(OCc3ccc(CN)cc3)cc(C(=O)NC3CCC(N)CC3)c2)cc1 (stereo not shown) [Example 45, N-(4-Aminocyclohexyl)-3-(4-aminomethylbenzyloxy)-5-(4-carbamimidoylphenoxy)benzamide]	21%	48 nM	6%	-12%	47%	–	–	–	–	–	–	–	–	–	–	–	–
N=C(N)c1ccc(Oc2cc(Oc3ccc(C(=N)N)cc3)cc(C(=O)N3CCN(CCN)CC3)c2)cc1 [Example 31, 2-{4-[3,5-Bis-(4-carbamimidoyl-phenoxy)-benzoyl]-piperazin-1-yl}-ethylamine]	40%	88 nM	5%	61%	94%	–	–	–	–	–	–	–	–	–	–	–	–
N=C(N)CCCCCOc1cc(Oc2ccc(C(=N)N)cc2)cc(C(=O)NC2CCC(N)CC2)c1 (stereo not shown) [Example 66, N-(4-Aminocyclohexyl)-3-(5-carbamimidoylpentyloxy)-5-(4-carbamimidoyl-phenoxy)-benzamide]	5%	16.1 nM	3%	21%	43%	–	–	–	–	16 nM	–	88%	95%	87%	–	–	–
2-[3,5-Bis-(4-carbanimidoyl-phenoxy)-benzoyl]-nonahydro-isoquinoline [Example 37]	–	479 nM	–	–	–	65%	13%	74%	67%	–	84%	–	–	–	–	–	–
1-[3,5-Bis-(4-carbanimidoyl-phenoxy)-benzoyl]-nonahydro-quinoline [Example 35]	–	313 nM	–	–	–	69%	10%	67%	69%	312 nM	–	–	–	–	18%	75%	78%
N=C(N)c1ccc(COc2cc(Oc3ccc(C(=N)N)cc3)cc(C(=O)NC3CCC(N)CC3)c2)cc1 (stereo not shown) [Example 43, N-(4-Aminocyclohexyl)-3-(4-carbamimidoylbenzyloxy)-5-(4-carbamimidoylphenoxy)benzamide]	33%	16 nM	7%	45%	76%	–	–	–	–	–	–	–	–	–	–	–	–
N=C(N)c1ccc(Oc2cc(OCc3cccc(C(=N)N)c3)cc(C(=O)NC3CCC(N)CC3)c2)cc1 (stereo not shown) [Example 42, N-(4-Aminocyclohexyl)-3-(3-carbamimidoylbenzyloxy)-5-(4-carbamimidoylphenoxy)benzamide]	30%	10 nM	11%	36%	93%	–	–	–	–	–	–	–	–	–	–	–	–
N=C(N)CCCCOc1cc(Oc2ccc(C(=N)N)cc2)cc(C(=O)NC2CCC(N)CC2)c1 (stereo not shown) [Example 65, N-(4-Aminocyclohexyl)-3-(4-carbamimidoylbutoxy)-5-(4-carbamimidoyl-phenoxy)-benzamide]	5%	16.8 nM	4%	27%	63%	–	–	–	–	16 nM	–	7%	88%	96%	–	–	–

The next lines start with results.

inhibition at 5 µM (plasmin)	IC50 [1, 5]	inhibition at 5 µM (uPA)	inhibition at 5 µM (thrombin)	inhibition at 5 µM (Factor Xa)	Plasmin Inhibition (%) (plasmin)	uPA Inhibition (%) (uPA)	Thrombin Inhibition (%) (thrombin)	Factor Xa Inhibition (%) (Factor Xa)	IC50 [1, 6]	Compound	Trypsin Inhibition (%) (trypsin)	inhibition at 10 µM (DU145 cells [2])	inhibition at 10 µM (DU145 cells [3])	viability at 10 µM (DU145 cells [4])	Inhibition of migration at 10 μM (%) (DU145 cells [2]; 24 hours)	Inhibition of invasion at 10 μM (%) (DU145 cells [3]; 48 hours)	Cell survival at 10 μM (%) (DU145 cells [4])
–	4 nM	–	–	–	61%	23%	49%	81%	–	N=C(N)c1ccc(Oc2cc(NC(=O)[C@H]3CC[C@H](N)CC3)cc(Oc3ccc(C(=N)N)cc3)c2)cc1 [Example 108, Trans-4-amino-cyclohexanecarboxylic Acid[3,5-bis-(4-carbamimidoyl-phenoxy)-phenyl]-amide]	76%	–	–	–	–	–	–
10%	63.4 nM	5%	36%	5%	–	–	–	–	63 nM	N=C(N)c1ccc(Oc2cc(Oc3ccc(CN)cc3)cc(C(=O)NC3CCC(N)CC3)c2)cc1 (stereo not shown) [Example 84, N-(4-Aminocyclohexyl)-3-(4-aminomethylphenoxy)-5-(4-carbamimidoylphenoxy)benzamide]	–	80%	92%	100%	–	–	–
58%	2 nM	25%	44%	92%	–	–	–	–	–	N=C(N)c1ccc(Oc2cc(Oc3ccc(C(=N)N)cc3)cc(C(=O)OC3CCC(N)CC3)c2)cc1 (stereo not shown) [Example 103, 3,5-Bis-(4-carbamimidoyl-phenoxy)-benzoic acid 4-amino-cyclohexyl Ester]	92%	–	–	–	–	–	–
–	7 nM	–	–	–	30%	14%	47%	97%	–	N=C(N)c1cccc(COc2cc(NC(=O)C3CCC(N)CC3)cc(OCc3cccc(C(=N)N)c3)c2)c1 (stereo not shown) [Example 119, 4-Amino-cyclohexanecarboxylic acid[3,5-bis-(3-carbamimidoyl-benzyloxy)-phenyl]-amide]	77%	–	–	–	–	–	–
–	–	–	–	–	–	–	–	–	158 nM	N=C(N)c1cc(F)c(Oc2cc(Oc3ccc(CN)cc3)cc(C(=O)NC3CCC(N)CC3)c2)c(F)c1 (stereo not shown) [Example 87, N-(4-Amino-cyclohexyl)-3-(4-aminomethyl-phenoxy)-5-(4-carbamimidoyl-2,6-difluoro-phenoxy)-benzamide]	–	47%	88%	113%	–	–	–
22%	18.9 nM	9%	26%	81%	–	–	–	–	–	N=C(N)c1ccc(Oc2cc(Oc3ccc(C(=N)N)cc3Cl)cc(C(=O)NC3CCC(N)CC3)c2)cc1 (stereo not shown) [Example 69, N-(4-Aminocyclohexyl)-3-(4-carbamimidoyl-2-chlorophenoxy)-5-(4-carbamimidoylphenoxy)benzamide]	–	–	–	–	–	–	–
22%	5 nM	11%	76%	96%	–	–	–	–	–	N=C(N)c1cccc(COc2cc(OCc3cccc(C(=N)N)c3)cc(C(=O)NC3CCC(N)CC3)c2)c1 (stereo not shown) [Example 77, N-(4-Aminocyclohexyl)-3,5-bis-(3-carbamimidoyl Benzyloxy)benzamide]	–	–	–	–	–	–	–

— patent US8722930B2, “Protease inhibitors” (Orion Corporation, priority 2009, dated 2014)
